Experimental findings from patent US20250320213A1, “Nitrogen-Containing Heterocyclic Compounds” (Pfizer Inc., priority 2024, published 2025) are described below.

In this assay the target is T1, STAT6 (Homo sapiens, UniProt P42226).
T1 construct: stably transfected HaCaT keratinocyte cell line, which expresses NanoLuc luciferase reporter gene under the transcriptional control of the STAT6 responsive promoter; endogenous in cells; host or cells: HaCaT keratinocyte reporter cell line (stably transfected with a NanoLuc reporter)
T1 sequence (P42226 1-847): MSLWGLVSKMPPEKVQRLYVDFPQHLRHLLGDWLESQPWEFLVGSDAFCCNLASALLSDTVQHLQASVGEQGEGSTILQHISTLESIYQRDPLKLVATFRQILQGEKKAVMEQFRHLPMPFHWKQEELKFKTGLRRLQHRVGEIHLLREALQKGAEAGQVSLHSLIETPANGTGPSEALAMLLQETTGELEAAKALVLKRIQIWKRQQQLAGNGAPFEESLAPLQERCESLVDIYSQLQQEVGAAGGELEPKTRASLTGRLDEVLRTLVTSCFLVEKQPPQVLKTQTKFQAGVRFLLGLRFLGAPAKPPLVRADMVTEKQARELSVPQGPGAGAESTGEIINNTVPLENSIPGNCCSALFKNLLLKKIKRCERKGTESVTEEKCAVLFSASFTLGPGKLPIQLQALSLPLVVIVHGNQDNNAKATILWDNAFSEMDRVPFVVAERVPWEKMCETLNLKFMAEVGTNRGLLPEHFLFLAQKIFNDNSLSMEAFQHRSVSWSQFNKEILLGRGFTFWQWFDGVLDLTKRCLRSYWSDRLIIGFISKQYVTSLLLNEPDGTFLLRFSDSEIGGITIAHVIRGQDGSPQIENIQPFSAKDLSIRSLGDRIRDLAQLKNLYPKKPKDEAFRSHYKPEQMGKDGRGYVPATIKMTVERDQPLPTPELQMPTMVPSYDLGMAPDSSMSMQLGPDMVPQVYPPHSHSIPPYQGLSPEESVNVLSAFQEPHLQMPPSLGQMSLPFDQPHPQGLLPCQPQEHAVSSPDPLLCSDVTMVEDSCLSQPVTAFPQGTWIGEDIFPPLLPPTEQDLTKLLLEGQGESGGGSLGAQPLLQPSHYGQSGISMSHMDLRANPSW
Put plainly: STAT6 Reporter Luciferase Assay (IL-13 stimulated HaCaT keratinocyte NanoLuc reporter cells). Type of assay: cell-based. As to conditions: IL-13 stimulated HaCaT STAT6 NanoLuc reporter cells; read-out: Reporter EC50. In outline: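 HaCaT cells stably carrying a NanoLuc reporter driven by the STAT6-responsive IL-13Ra2 promoter were preincubated with compounds for 2 h at 37 °C in 2% FBS medium. Cells were then stimulated with 0.12 nM IL-13 for 4 h, and luminescence was read after Nano-Glo substrate. Compounds ran as 11-point 4-fold dilutions in duplicate.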
For `Cc1cc2n(n1)CCN(C(=O)c1ccc(N3CCc4c(c(C(=O)NCc5ccc(NC(=O)N(C)C)cc5)nn4C(C)C)C3)nc1)C2` [Example 377, N-(4-(3,3-dimethylureido)benzyl)-1-isopropyl-5-(5-(2-methyl-4,5,6,7-tetrahydropyrazolo[1,5-a]pyrazine-5-carbonyl)pyridin-2-yl)-4,5,6,7-tetrahydro-1H-pyrazolo[4,3-c]pyridine-3-carboxamide], the EC50 (in general, the concentration at which the effect is half-maximal) is 21 nM. The figure for `CC(C)n1nc(C(=O)NCc2ccc(NC(=O)N(C)C)cc2)c2c1CCN(c1ccc(C(=O)N3Cc4ccncc4C3)cn1)C2` [Example 378, 5-(5-(2,3-dihydro-1H-pyrrolo[3,4-c]pyridine-2-carbonyl)pyridin-2-yl)-N-(4-(3,3-dimethylureido)benzyl)-1-isopropyl-4,5,6,7-tetrahydro-1H-pyrazolo[4,3-c]pyridine-3-carboxamide] is 15 nM. The value for `CC(C)n1nc(C(=O)NCc2ccc(NC(=O)N(C)C)cc2)c2c1CCN(c1ccc(C(=O)N3CCc4ncncc4C3)cn1)C2` [Example 379, N-(4-(3,3-dimethylureido)benzyl)-1-isopropyl-5-(5-(5,6,7,8-tetrahydropyrido[4,3-d]pyrimidine-6-carbonyl)pyridin-2-yl)-4,5,6,7-tetrahydro-1H-pyrazolo[4,3-c]pyridine-3-carboxamide] was 70 nM; that for `CC(C)n1nc(C(=O)NCc2ccc(NC(=O)N(C)C)cc2)c2c1CCN(c1ccc(C(=O)N3CCn4cnnc4C3)cn1)C2` [Example 380, N-(4-(3,3-dimethylureido)benzyl)-1-isopropyl-5-(5-(5,6,7,8-tetrahydro-[1,2,4]triazolo[4,3-a]pyrazine-7-carbonyl)pyridin-2-yl)-4,5,6,7-tetrahydro-1H-pyrazolo[4,3-c]pyridine-3-carboxamide] was 538 nM; that for `Cc1c2c(nn1C)CCN(C(=O)c1ccc(N3CCc4c(c(C(=O)NCc5ccc(NC(=O)N(C)C)cc5)nn4C(C)C)C3)nc1)C2` [Example 381, 5-(5-(2,3-dimethyl-4,5,6,7-tetrahydro-2H-pyrazolo[4,3-c]pyridine-5-carbonyl)pyridin-2-yl)-N-(4-(3,3-dimethylureido)benzyl)-1-isopropyl-4,5,6,7-tetrahydro-1H-pyrazolo[4,3-c]pyridine-3-carboxamide] was 33 nM.

Consider `Cc1ncc2n1CCN(C(=O)c1ccc(N3CCc4c(c(C(=O)NCc5ccc(NC(=O)N(C)C)cc5)nn4C(C)C)C3)nc1)C2` [Example 382, N-(4-(3,3-dimethylureido)benzyl)-1-isopropyl-5-(5-(3-methyl-5,6,7,8-tetrahydroimidazo[1,5-a]pyrazine-7-carbonyl)pyridin-2-yl)-4,5,6,7-tetrahydro-1H-pyrazolo[4,3-c]pyridine-3-carboxamide], for which the 50% effective concentration (EC50) was 137 nM. Take `CC(C)n1nc(C(=O)NCc2ccc(NC(=O)N(C)C)cc2)c2c1CCN(c1ccc(C(=O)N3CCc4nocc4C3)cn1)C2` [Example 383, N-(4-(3,3-dimethylureido)benzyl)-1-isopropyl-5-(5-(4,5,6,7-tetrahydroisoxazolo[4,3-c]pyridine-5-carbonyl)pyridin-2-yl)-4,5,6,7-tetrahydro-1H-pyrazolo[4,3-c]pyridine-3-carboxamide]: the 50% effective concentration (EC50) worked out at 49 nM.

For the compound `CC(C)n1nc(C(=O)NCc2ccc(NC(=O)N(C)C)cc2)c2c1CCN(c1ccc(C(=O)N3Cc4cn(C)nc4C3)cn1)C2` [Example 385, N-(4-(3,3-dimethylureido)benzyl)-1-isopropyl-5-(5-(2-methyl-2,4,5,6-tetrahydropyrrolo[3,4-c]pyrazole-5-carbonyl)pyridin-2-yl)-4,5,6,7-tetrahydro-1H-pyrazolo[4,3-c]pyridine-3-carboxamide], the EC50 stood at 4 nM. As to `CC(C)n1nc(C(=O)NCc2ccc(NC(=O)N(C)C)cc2)c2c1CCN(c1ccc(C(=O)N3CCn4nc(C#N)cc4C3)cn1)C2` [Example 386, 5-(5-(2-cyano-4,5,6,7-tetrahydropyrazolo[1,5-a]pyrazine-5-carbonyl)pyridin-2-yl)-N-(4-(3,3-dimethylureido)benzyl)-1-isopropyl-4,5,6,7-tetrahydro-1H-pyrazolo[4,3-c]pyridine-3-carboxamide], the concentration for a half-maximal effect (EC50) is 56 nM.

In the case of `COc1cccc2c1CN(C(=O)c1ccc(N3CCc4c(c(C(=O)NCc5ccc(NC(=O)N(C)C)cc5)nn4C(C)C)C3)nc1)C2` [Example 387, N-(4-(3,3-dimethylureido)benzyl)-1-isopropyl-5-(5-(4-methoxyisoindoline-2-carbonyl)pyridin-2-yl)-4,5,6,7-tetrahydro-1H-pyrazolo[4,3-c]pyridine-3-carboxamide], the EC50 was determined as 3 nM. With `Cc1nn(C)c2c1CN(C(=O)c1ccc(N3CCc4c(c(C(=O)NCc5ccc(NC(=O)N(C)C)cc5)nn4C(C)C)C3)nc1)C2` [Example 401, 5-(5-(1,3-dimethyl-1,4,5,6-tetrahydropyrrolo[3,4-c]pyrazole-5-carbonyl)pyridin-2-yl)-N-(4-(3,3-dimethylureido)benzyl)-1-isopropyl-4,5,6,7-tetrahydro-1H-pyrazolo[4,3-c]pyridine-3-carboxamide], the EC50 was found to be 32 nM. For `CC(C)n1nc(C(=O)NCc2ccc(NC(=O)N(C)C)cc2)c2c1CCN(c1ccc(C(=O)N3Cc4ncsc4C3)cn1)C2` [Example 402, 5-(5-(5,6-dihydro-4H-pyrrolo[3,4-d]thiazole-5-carbonyl)pyridin-2-yl)-N-(4-(3,3-dimethylureido)benzyl)-1-isopropyl-4,5,6,7-tetrahydro-1H-pyrazolo[4,3-c]pyridine-3-carboxamide], the EC50 worked out at 3 nM.

With `CC(C)n1nc(C(=O)NCc2ccc(NC(=O)N(C)C)cc2)c2c1CCN(c1ccc(C(=O)N3CCc4scnc4C3)cn1)C2` [Example 403, N-(4-(3,3-dimethylureido)benzyl)-1-isopropyl-5-(5-(4,5,6,7-tetrahydrothiazolo[4,5-c]pyridine-5-carbonyl)pyridin-2-yl)-4,5,6,7-tetrahydro-1H-pyrazolo[4,3-c]pyridine-3-carboxamide], the concentration giving a half-maximal response (EC50) came out at 12 nM. The figure for `Cc1cnc2n1CCN(C(=O)c1ccc(N3CCc4c(c(C(=O)NCc5ccc(NC(=O)N(C)C)cc5)nn4C(C)C)C3)nc1)C2` [Example 404, N-(4-(3,3-dimethylureido)benzyl)-1-isopropyl-5-(5-(3-methyl-5,6,7,8-tetrahydroimidazo[1,2-a]pyrazine-7-carbonyl)pyridin-2-yl)-4,5,6,7-tetrahydro-1H-pyrazolo[4,3-c]pyridine-3-carboxamide] is 40 nM; for `CC(C)n1nc(C(=O)NCc2ccc(NC(=O)N(C)C)cc2)c2c1CCN(c1ccc(C(=O)N3CCc4ncn(C)c4C3)cn1)C2` [Example 405, N-(4-(3,3-dimethylureido)benzyl)-1-isopropyl-5-(5-(3-methyl-4,5,6,7-tetrahydro-3H-imidazo[4,5-c]pyridine-5-carbonyl)pyridin-2-yl)-4,5,6,7-tetrahydro-1H-pyrazolo[4,3-c]pyridine-3-carboxamide] it is 159 nM; for `Cc1nc2c(s1)CCN(C(=O)c1ccc(N3CCc4c(c(C(=O)NCc5ccc(NC(=O)N(C)C)cc5)nn4C(C)C)C3)nc1)C2` [Example 406, N-(4-(3,3-dimethylureido)benzyl)-1-isopropyl-5-(5-(2-methyl-4,5,6,7-tetrahydrothiazolo[4,5-c]pyridine-5-carbonyl)pyridin-2-yl)-4,5,6,7-tetrahydro-1H-pyrazolo[4,3-c]pyridine-3-carboxamide] it is 11 nM. The figure for `CC(C)n1nc(C(=O)NCc2ccc(NC(=O)N(C)C)cc2)c2c1CCN(c1ccc(C(=O)N3Cc4cncnc4C3)cn1)C2` [Example 408, 5-(5-(6,7-dihydro-5H-pyrrolo[3,4-d]pyrimidine-6-carbonyl)pyridin-2-yl)-N-(4-(3,3-dimethylureido)benzyl)-1-isopropyl-4,5,6,7-tetrahydro-1H-pyrazolo[4,3-c]pyridine-3-carboxamide] is 39 nM; for `Cc1nc2c(n1C)CCN(C(=O)c1ccc(N3CCc4c(c(C(=O)NCc5ccc(NC(=O)N(C)C)cc5)nn4C(C)C)C3)nc1)C2` [Example 409, 5-(5-(1,2-dimethyl-4,5,6,7-tetrahydro-1H-imidazo[4,5-c]pyridine-5-carbonyl)pyridin-2-yl)-N-(4-(3,3-dimethylureido)benzyl)-1-isopropyl-4,5,6,7-tetrahydro-1H-pyrazolo[4,3-c]pyridine-3-carboxamide] it is 24 nM.
